Data on 32 molecules can be found in patent US9694016B2 (Novartis AG, priority 2013, dated 2017).

SMILES strings stand for the structures.

b-Raf (V600E), sequence (P15056 whole entry V600E): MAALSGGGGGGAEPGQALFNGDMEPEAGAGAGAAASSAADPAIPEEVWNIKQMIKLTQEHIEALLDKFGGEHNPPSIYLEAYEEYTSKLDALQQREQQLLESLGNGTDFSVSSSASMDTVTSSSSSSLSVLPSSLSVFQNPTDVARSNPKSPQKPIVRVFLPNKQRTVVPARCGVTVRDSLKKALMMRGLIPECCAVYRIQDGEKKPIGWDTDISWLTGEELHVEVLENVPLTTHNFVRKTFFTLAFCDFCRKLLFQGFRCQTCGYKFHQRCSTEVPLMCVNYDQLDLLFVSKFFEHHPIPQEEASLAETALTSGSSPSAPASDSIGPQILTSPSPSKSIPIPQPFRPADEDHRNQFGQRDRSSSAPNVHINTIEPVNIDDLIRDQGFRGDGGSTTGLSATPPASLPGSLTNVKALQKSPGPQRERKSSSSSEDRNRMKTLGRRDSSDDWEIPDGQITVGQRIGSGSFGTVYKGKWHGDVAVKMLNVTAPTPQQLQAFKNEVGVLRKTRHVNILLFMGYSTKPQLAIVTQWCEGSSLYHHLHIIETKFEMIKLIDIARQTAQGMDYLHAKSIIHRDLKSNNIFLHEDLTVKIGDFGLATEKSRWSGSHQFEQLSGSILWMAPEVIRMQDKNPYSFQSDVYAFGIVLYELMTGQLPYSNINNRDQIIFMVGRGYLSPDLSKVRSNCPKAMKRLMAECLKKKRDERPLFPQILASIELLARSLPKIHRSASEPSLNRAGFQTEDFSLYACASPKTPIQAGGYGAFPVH

One test concerns the target b-Raf (V600E) (Homo sapiens (Human), UniProt P15056, V600E). The note with it: read-out: b-Raf IC-50; AlphaScreen, 60 min pre-incubation, 3 hours reaction. For orientation: Bead proximity is the source of the signal in Alpha formats.
On to `Cc1ccc(NC(=O)c2ccnc(S(C)(=O)=O)c2)cc1-c1cc(N2CCOCC2)c(OC2CCOCC2)nn1` [Example 582, N-(4-methyl-3-(5-morpholino-6-((tetrahydro-2H-pyran-4-yl)oxy)pyridazin-3-yl)phenyl)-2-(methylsulfonyl)isonicotinamide], for which the IC50 was 0.8 nM. Take `Cc1ncc(NC(=O)c2ccnc(C3CC3)c2)cc1-c1cc(N2CCOCC2)n(C)c(=O)c1` [Example 511, 2-cyclopropyl-N-(1′,2-dimethyl-6′-morpholino-2′-oxo-1′,2′-dihydro-[3,4′-bipyridin]-5-yl)isonicotinamide]: the IC50 worked out at 6.4 nM.

For the molecule `Cc1ccc(NC(=O)c2cccc(C(F)F)c2)cc1-c1cc(N2CCOCC2)c2nccn2n1` [Example 847, 3-(difluoromethyl)-N-(4-methyl-3-(8-morpholinoimidazo[1,2-b]pyridazin-6-yl)phenyl)benzamide], the IC50 came out at 0.2 nM. As to `Cc1ncc(NC(=O)c2ccnc(C(C)(C)C#N)c2)cc1-c1cc(N2CCOCC2)nc(NC2(CO)CCOCC2)n1` [Example 753, 2-(2-cyanopropan-2-yl)-N-(5-(2-((4-(hydroxymethyl)tetrahydro-2H-pyran-4-yl)amino)-6-morpholinopyrimidin-4-yl)-6-methylpyridin-3-yl)isonicotinamide], the IC50 turned out to be 30.9 nM. For the molecule `Cc1ncc(C(=O)Nc2cccc(C(C)(C)C#N)c2)cc1-c1cc(N2CCOCC2)c(=O)n(C)c1` [Example 444, N-(3-(2-cyanopropan-2-yl)phenyl)-1′,2-dimethyl-5′-morpholino-6′-oxo-1′,6′-dihydro-[3,3′-bipyridine]-5-carboxamide], the IC50 was found to be 44.8 nM. Consider `Cc1ncc(NC(=O)c2ccnc(C(C)(C)F)c2)cc1-c1cc(N2CCOCC2)c(=O)n(C)n1` [Example 677, 2-(2-fluoropropan-2-yl)-N-(6-methyl-5-(1-methyl-5-morpholino-6-oxo-1,6-dihydropyridazin-3-yl)pyridin-3-yl)isonicotinamide], for which the IC50 was 12.7 nM. Same read-out and setting: to `Cc1ccc(NC(=O)c2ccnc(C(F)F)c2)cc1-c1cc(N2CCOCC2)n2nccc2n1` [Example 805, 2-(difluoromethyl)-N-(4-methyl-3-(7-morpholinopyrazolo[1,5-a]pyrimidin-5-yl)phenyl)isonicotinamide] belongs 0.4 nM; to `CCNc1nc(-c2cc(NC(=O)c3ccnc(C(C)(C)C)c3)cnc2C)cc(N2CCOCC2)n1` [Example 724, 2-(tert-butyl)-N-(5-(2-(ethylamino)-6-morpholinopyrimidin-4-yl)-6-methylpyridin-3-yl)isonicotinamide], 20.5 nM; to `Cc1ccc(NC(=O)c2cccc(C(F)(F)F)c2)cc1-c1nc(N2CCOCC2)c2sccc2n1` [Example 829, N-(4-methyl-3-(4-morpholinothieno[3,2-d]pyrimidin-2-yl)phenyl)-3-(trifluoromethyl)benzamide], 0.2 nM. Same read-out and setting: to `CCNc1nc(-c2cc(NC(=O)c3ccnc(C(F)F)c3)cnc2C)cc(N2CCOCC2)n1` [Example 721, 2-(difluoromethyl)-N-(5-(2-(ethylamino)-6-morpholinopyrimidin-4-yl)-6-methylpyridin-3-yl)isonicotinamide] belongs 3.3 nM; to `Cc1ccc(NC(=O)c2ccnc(C(C)(F)F)c2)cc1-c1cc(N2CCOCC2)c(=O)n(C)n1` [Example 657, 2-(1,1-difluoroethyl)-N-(4-methyl-3-(1-methyl-5-morpholino-6-oxo-1,6-dihydropyridazin-3-yl)phenyl)isonicotinamide], 1.1 nM; to `CCn1cc(C(=O)Nc2ccc(C)c(-c3cc(N4CCOCC4)c(=O)n(C)n3)c2)cc(C(F)(F)F)c1=O` [Example 641, 1-ethyl-N-(4-methyl-3-(1-methyl-5-morpholino-6-oxo-1,6-dihydropyridazin-3-yl)phenyl)-6-oxo-5-(trifluoromethyl)-1,6-dihydropyridine-3-carboxamide], 2.7 nM. Turning to `Cc1ncc(NC(=O)c2ccnc(C(C)(F)F)c2)cc1-c1cc(N2CCO[C@H](CO)C2)n(C)c(=O)c1` [Example 530, (S)-2-(1,1-difluoroethyl)-N-(6′-(2-(hydroxymethyl)morpholino)-1′,2-dimethyl-Z-oxo-1′,2′-dihydro-[3,4′-bipyridin]-5-yl)isonicotinamide], the IC50 turned out to be 51.3 nM.

The same test, now with this note: read-out: b-Raf IC-50; AlphaScreen, 60 min pre-incubation, reaction 3 hours at room temperature.
As to `Cc1ccc(NC(=O)c2cccc(C(F)(F)F)c2)cc1-c1cc(NCC(O)C(F)(F)F)nc(N2CCOCC2)c1` (centres unmarked) [Example 1063, N-(4-methyl-3-(2-morpholino-6-((3,3,3-trifluoro-2-hydroxypropyl)amino)pyridin-4-yl)phenyl)-3-(trifluoromethyl)benzamide], the IC50 stood at 1.48 nM.

As for `Cc1ccc(NC(=O)c2ccnc(C(F)F)c2)cc1-c1cc(N2CCOCC2)nc(N2CCOCC2)c1` [Example 1115, 2-(difluoromethyl)-N-(3-(2,6-dimorpholinopyridin-4-yl)-4-methylphenyl)isonicotinamide], the IC50 stood at 0.65 nM. Still for that read-out and setting: to `Cc1ncc(NC(=O)c2ccnc(C(C)C)c2)cc1-c1cc(N2CCOCC2)c2nccn2n1` [Example 869, 2-isopropyl-N-(6-methyl-5-(8-morpholinoimidazo[1,2-b]pyridazin-6-yl)pyridin-3-yl)isonicotinamide] belongs 1.3 nM. Consider `Cc1ccc(NC(=O)c2cncc(C(F)(F)F)c2)cc1-c1cc(N2CCOCC2)n(C)c(=O)c1` [Example 901, N-(4-methyl-3-(1-methyl-6-morpholino-2-oxo-1,2-dihydropyridin-4-yl)phenyl)-5-(trifluoromethyl)nicotinamide], for which the IC50 is 0.85 nM. Still for that read-out and setting: in the case of `Cc1ccc(NC(=O)c2ccnc(C(C)(C)C#N)c2)cc1-c1cc(N2CCOCC2)c(S(C)(=O)=O)nn1` [Example 931, 2-(2-cyanopropan-2-yl)-N-(4-methyl-3-(6-(methylsulfonyl)-5-morpholinopyridazin-3-yl)phenyl)isonicotinamide] it was 2.7 nM; in that of `Cc1ncc(NC(=O)c2cccc(C(F)(F)F)c2)cc1-c1nc2c(c(N3CCOCC3)n1)CS(=O)(=O)C2` [Example 886, N-(6-methyl-5-(4-morpholino-6,6-dioxido-5,7-dihydrothieno[3,4-d]pyrimidin-2-yl)pyridin-3-yl)-3-(trifluoromethyl)benzamide], 7.6 nM; in that of `Cc1ccc(NC(=O)c2cncc(C(F)(F)F)c2)cc1-c1cc(N2CCOCC2)c(=O)n(C)c1` [Example 904, N-(4-methyl-3-(1-methyl-5-morpholino-6-oxo-1,6-dihydropyridin-3-yl)phenyl)-5-(trifluoromethyl)nicotinamide], 2.01 nM. With `Cc1ncc(NC(=O)c2ccnc(C(C)(C)F)c2)cc1-c1cc(C2COCCO2)nc(N2CCOCC2)c1` (centres unmarked) [Example 1167, N-(2′-(1,4-dioxan-2-yl)-2-methyl-6′-morpholino-[3,4′-bipyridin]-5-yl)-2-(2-fluoropropan-2-yl)isonicotinamide], the IC50 was 7.62 nM. Same read-out and setting: to `Cc1ncc(NC(=O)c2ccnc(C(C)C)c2)cc1-c1cc(N2CCOCC2)nc(N2CC(O)C2)c1` [Example 1081, N-(2′-(3-hydroxyazetidin-1-yl)-2-methyl-6′-morpholino-[3,4′-bipyridin]-5-yl)-2-isopropylisonicotinamide] belongs 6.43 nM.

Consider `Cc1ncc(NC(=O)c2ccnc(C(C)(C)C#N)c2)cc1-c1cc(N2CCOCC2)nc(N2CC(O)C2)c1` [Example 1083, 2-(2-cyanopropan-2-yl)-N-(2′-(3-hydroxyazetidin-1-yl)-2-methyl-6′-morpholino-[3,4′-bipyridin]-5-yl)isonicotinamide], for which the IC50 was found to be 35.2 nM.

On to `Cc1ncc(NC(=O)c2cnnc(C(F)(F)F)c2)cc1-c1cc(N2CCOCC2)nc(N2CC(C)(O)C2)c1` [Example 1107, N-(2′-(3-hydroxy-3-methylazetidin-1-yl)-2-methyl-6′-morpholino-[3,4′-bipyridin]-5-yl)-6-(trifluoromethyl)pyridazine-4-carboxamide], for which the IC50 came to 13.4 nM.

The same test, now with this note: read-out: b-Raf IC-50; Table 2; AlphaScreen, 3 hours reaction.
For `Cc1nn(C)cc1C(=O)Nc1cnc(C)c(-c2cc(N3CCOCC3)c(=O)n(C)c2)c1` [Example 374, N-(1′,2-dimethyl-5′-morpholino-6′-oxo-1′,6′-dihydro-[3,3′-bipyridin]-5-yl)-1,3-dimethyl-1H-pyrazole-4-carboxamide], the IC50 came out at 3400 nM. On the same count and under the same terms, in the case of `CCOc1ncc(-c2cc(NC(=O)c3cccc(C(F)F)c3)ccc2C)cc1N1CCOCC1` [Example 231, 3-(difluoromethyl)-N-(3-(6-ethoxy-5-morpholinopyridin-3-yl)-4-methylphenyl)benzamide] it was 0.4 nM; in that of `Cc1ncc(NC(=O)c2ccnc(C(C)(C)F)c2)cc1-c1cnc(N(C)C)c(N2CCOCC2)c1` [Example 268, N-(6′-(dimethylamino)-2-methyl-5-morpholino-[3,3′-bipyridin]-5-yl)-2-(2-fluoropropan-2-yl)isonicotinamide], 1.6 nM; in that of `COC(=O)NCCn1cc(-c2cc(NC(=O)c3cccc(C(F)(F)F)c3)cnc2C)cc(N2CCOCC2)c1=O` [Example 193, methyl(2-(2′-methyl-5-morpholino-6-oxo-5′-(3-(trifluoromethyl)benzamido)-[3,3′-bipyridin]-1(6H)-yl)ethyl)carbamate], 100 nM. As to `Cc1ccc(NC(=O)c2ccnc(C3(C#N)CC3)c2)cc1-c1cc(N2CCOCC2)c(=O)n(C)c1` [Example 357, 2-(1-cyanocyclopropyl)-N-(4-methyl-3-(1-methyl-5-morpholino-6-oxo-1,6-dihydropyridin-3-yl)phenyl)isonicotinamide], the IC50 is 3.4 nM. On the same count and under the same terms, in the case of `Cc1ccc(NC(=O)c2cccc(CC#N)c2)cc1-c1cc(N2CCOCC2)c(=O)n(C)c1` [Example 359, 3-(cyanomethyl)-N-(4-methyl-3-(1-methyl-5-morpholino-6-oxo-1,6-dihydropyridin-3-yl)phenyl)benzamide] it was 5.5 nM.

In the case of `Cc1ccc(NC(=O)c2cccc(C(F)(F)F)c2)cc1-c1cc(N2CCOCC2)ccn1` [Example 111, N-(4-methyl-3-(4-morpholinopyridin-2-yl)phenyl)-3-(trifluoromethyl)benzamide], the IC50 amounted to 0.5 nM.

Regarding `CCOc1ncc(-c2cc(NC(=O)c3cnnc(C(F)(F)F)c3)cnc2C)cc1N1CCOC[C@H]1C` [Example 285], the IC50 was 200 nM.
